{"source": "patent US10494364B2", "about": "“Cathepsin K inhibitors and application thereof” (SUNSHINE LAKE PHARMA CO., LTD., priority 2015, dated 2019)", "type_in_all_cases": "biochemical", "key": {"human cathepsin K": {"target": "T1, human cathepsin K (Homo sapiens, UniProt P43235)", "T1 sequence (P43235 115-329)": "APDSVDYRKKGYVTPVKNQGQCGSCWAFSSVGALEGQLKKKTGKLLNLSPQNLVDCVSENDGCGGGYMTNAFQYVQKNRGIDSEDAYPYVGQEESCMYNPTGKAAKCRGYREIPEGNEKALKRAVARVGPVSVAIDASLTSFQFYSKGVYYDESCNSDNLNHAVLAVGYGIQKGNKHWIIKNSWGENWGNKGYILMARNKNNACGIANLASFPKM", "assay": "Assay of cathepsin K inhibitory activity in vitro", "details": "IC50 against human cathepsin K; substrate Z-Phe-Arg-AMC 10 μM; 25° C.; read-out: Cat-K", "description": "Assay Method of Cathepsin K Inhibitory Activity In Vitro\nUsing 45000-fold diluted cathepsin K solution and 10 μM Z-Phe-Arg-AMC as substrate, the test compound and cathepsin K solution were incubated at 25° C. for 15 min in a 15 μL reaction system according to the optimized experimental condition."}, "human cathepsin B": {"target": "human cathepsin B (Homo sapiens, UniProt P07858)", "assay": "Assay of cathepsin B inhibitory activity in vitro", "details": "IC50 against human cathepsin B; substrate Z-Phe-Arg-AMC 10 μM; 25° C.; read-out: Cat-B", "description": "Assay Method of Cathepsin B Inhibitory Activity In Vitro\n0.01 ng/μL was the final concentration of Cathepsin B in the enzyme reaction, and Z-Phe-Arg-AMC with the final concentration of 10 μM was added into the reaction system as substrate, in the reaction system the test compound and enzyme had been incubated at 25° C. for 15 min."}, "human cathepsin L": {"target": "human cathepsin L (Homo sapiens, UniProt P07711)", "sequence (P07711 114-333)": "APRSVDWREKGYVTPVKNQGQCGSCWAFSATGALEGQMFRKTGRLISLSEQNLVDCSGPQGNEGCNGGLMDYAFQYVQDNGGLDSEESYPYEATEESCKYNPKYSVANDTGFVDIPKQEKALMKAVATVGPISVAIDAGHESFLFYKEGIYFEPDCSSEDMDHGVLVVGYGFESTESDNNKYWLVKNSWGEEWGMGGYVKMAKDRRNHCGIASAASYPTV", "assay": "Assay of cathepsin L inhibitory activity in vitro", "details": "IC50 against human cathepsin L; substrate Z-Phe-Arg-AMC 10 μM; 25° C.; read-out: Cat-L", "description": "Assay Method of Cathepsin L Inhibitory Activity In Vitro\n0.01 ng/μL was the final concentration of Cathepsin L in the enzyme reaction, and Z-Phe-Arg-AMC with the final concentration of 10 μM was added into the reaction system as substrate, in the reaction system the test compound and enzyme had been incubated at 25° C. for 15 min."}, "human cathepsin S": {"target": "human cathepsin S (Homo sapiens, UniProt P25774)", "sequence (P25774 115-331)": "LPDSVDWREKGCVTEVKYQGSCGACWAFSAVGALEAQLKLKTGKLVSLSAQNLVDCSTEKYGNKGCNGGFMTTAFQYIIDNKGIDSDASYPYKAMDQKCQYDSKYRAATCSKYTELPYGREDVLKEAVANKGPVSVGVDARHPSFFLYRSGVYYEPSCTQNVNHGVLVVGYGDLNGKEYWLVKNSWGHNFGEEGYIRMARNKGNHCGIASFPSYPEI", "assay": "Assay of cathepsin S inhibitory activity in vitro", "details": "IC50 against human cathepsin S; substrate Z-VVR-AMC 20 μM; 25° C.; read-out: Cat-S", "description": "Assay Method of Cathepsin S Inhibitory Activity In Vitro\n0.25 ng/L was the final concentration of Cathepsin S in the enzyme reaction, and Z-VVR-AMC with the final concentration of 20 μM was added into the reaction system as substrate, in the reaction system the test compound and enzyme had been incubated at 25° C. for 15 min."}}, "data": [{"smiles": "CS(=O)(=O)Nc1ccc(-c2ccc3cc(C(=O)NC4(C(=O)NC5(C#N)CC5)CCC(F)(F)CC4)oc3c2)cc1", "note": "[Example 96]", "values": [{"measurement": "IC50", "setting": "human cathepsin K", "value": 0.00053, "unit": "µM"}, {"measurement": "IC50", "setting": "human cathepsin B", "value": 0.711, "unit": "µM"}, {"measurement": "IC50", "setting": "human cathepsin L", "value": "> 10", "unit": "µM"}, {"measurement": "IC50", "setting": "human cathepsin S", "value": 2.15, "unit": "µM"}]}, {"smiles": "COc1cc(-c2ccc3cc(C(=O)NC4(C(=O)NC5(C#N)CC5)CCC(F)(F)CC4)oc3c2)ccc1OCC(C)(C)O", "note": "[Example 44, N-(1-((1-cyanocyclopropyl)carbamoyl)-4,4-difluorocyclohexyl)-6-(4-(2-hydroxy-2-methylpropoxy)-3-methoxyphenyl)benzofuran-2-carboxamide]", "values": [{"measurement": "IC50", "setting": "human cathepsin K", "value": 0.00235, "unit": "µM"}, {"measurement": "IC50", "setting": "human cathepsin B", "value": 7.97, "unit": "µM"}, {"measurement": "IC50", "setting": "human cathepsin L", "value": "> 10", "unit": "µM"}, {"measurement": "IC50", "setting": "human cathepsin S", "value": "> 10", "unit": "µM"}]}, {"smiles": "N#CC1(NC(=O)C2(NC(=O)c3cc4ccc(-c5csc(N6CCNC6=O)n5)cc4o3)CCCCC2)CC1", "note": "[Example 65]", "values": [{"measurement": "IC50", "setting": "human cathepsin K", "value": 0.0013, "unit": "µM"}, {"measurement": "IC50", "setting": "human cathepsin B", "value": 0.697, "unit": "µM"}, {"measurement": "IC50", "setting": "human cathepsin L", "value": "> 10", "unit": "µM"}, {"measurement": "IC50", "setting": "human cathepsin S", "value": "> 10", "unit": "µM"}]}, {"smiles": "N#CC1(NC(=O)C2(NC(=O)c3cc4ccc(-c5ccc(-n6cn[nH]c6=O)cc5)cc4o3)CCC(F)(F)CC2)CC1", "note": "[Example 85]", "values": [{"measurement": "IC50", "setting": "human cathepsin K", "value": 0.00126, "unit": "µM"}, {"measurement": "IC50", "setting": "human cathepsin B", "value": 2.2, "unit": "µM"}, {"measurement": "IC50", "setting": "human cathepsin L", "value": "> 10", "unit": "µM"}, {"measurement": "IC50", "setting": "human cathepsin S", "value": 1.5, "unit": "µM"}]}, {"smiles": "N#CC1(NC(=O)C2(NC(=O)c3cc4ccc(-c5ccc(C6(O)CCS(=O)(=O)CC6)cc5)cc4o3)CCCCC2)CC1", "note": "[Example 76]", "values": [{"measurement": "IC50", "setting": "human cathepsin K", "value": 0.00055, "unit": "µM"}, {"measurement": "IC50", "setting": "human cathepsin B", "value": 0.12, "unit": "µM"}, {"measurement": "IC50", "setting": "human cathepsin L", "value": "> 10", "unit": "µM"}, {"measurement": "IC50", "setting": "human cathepsin S", "value": 0.34, "unit": "µM"}]}, {"smiles": "N#CC1(NC(=O)C2(NC(=O)c3cc4ccc(-c5csc(N6CCOC6=O)n5)cc4o3)CCCCC2)CC1", "note": "[Example 68]", "values": [{"measurement": "IC50", "setting": "human cathepsin K", "value": 0.00079, "unit": "µM"}, {"measurement": "IC50", "setting": "human cathepsin B", "value": 0.36, "unit": "µM"}, {"measurement": "IC50", "setting": "human cathepsin L", "value": "> 10", "unit": "µM"}, {"measurement": "IC50", "setting": "human cathepsin S", "value": 4.08, "unit": "µM"}]}, {"smiles": "N#CC1(NC(=O)C2(NC(=O)c3cc4ccc(-c5ccc(-n6cncn6)cc5)cc4o3)CCCCCC2)CC1", "note": "[Example 61]", "values": [{"measurement": "IC50", "setting": "human cathepsin K", "value": 0.00126, "unit": "µM"}, {"measurement": "IC50", "setting": "human cathepsin B", "value": 0.423, "unit": "µM"}, {"measurement": "IC50", "setting": "human cathepsin L", "value": "> 10", "unit": "µM"}, {"measurement": "IC50", "setting": "human cathepsin S", "value": "> 10", "unit": "µM"}]}, {"smiles": "N#CC1(NC(=O)C2(NC(=O)c3cc4ccc(-c5ccc(OC6COC6)cc5)cc4o3)CCC(F)(F)CC2)CC1", "note": "[Example 19, N-(1-((1-cyanocyclopropyl)carbamoyl)-4,4-difluorocyclohexyl)-6-(4-(oxetan-3-yloxy)phenyl)benzofuran-2-carboxamide]", "values": [{"measurement": "IC50", "setting": "human cathepsin K", "value": 0.002, "unit": "µM"}, {"measurement": "IC50", "setting": "human cathepsin B", "value": "> 10", "unit": "µM"}, {"measurement": "IC50", "setting": "human cathepsin L", "value": "> 10", "unit": "µM"}, {"measurement": "IC50", "setting": "human cathepsin S", "value": 2.3, "unit": "µM"}]}, {"smiles": "N#CC1(NC(=O)C2(NC(=O)c3cc4ccc(-c5csc(N6CCCC6=O)n5)cc4o3)CCCCC2)CC1", "note": "[Example 63]", "values": [{"measurement": "IC50", "setting": "human cathepsin K", "value": 0.0016, "unit": "µM"}, {"measurement": "IC50", "setting": "human cathepsin B", "value": 1.2, "unit": "µM"}, {"measurement": "IC50", "setting": "human cathepsin L", "value": "> 10", "unit": "µM"}, {"measurement": "IC50", "setting": "human cathepsin S", "value": "> 10", "unit": "µM"}]}, {"smiles": "N#CC1(NC(=O)C2(NC(=O)c3cc4ccc(-c5ccc(C6(O)CCOCC6)cc5)cc4o3)CCCCC2)CC1", "note": "[Example 75]", "values": [{"measurement": "IC50", "setting": "human cathepsin K", "value": 0.00183, "unit": "µM"}, {"measurement": "IC50", "setting": "human cathepsin B", "value": 0.49, "unit": "µM"}, {"measurement": "IC50", "setting": "human cathepsin L", "value": "> 10", "unit": "µM"}, {"measurement": "IC50", "setting": "human cathepsin S", "value": 4.1, "unit": "µM"}]}, {"smiles": "N#CC1(NC(=O)C2(NC(=O)c3cc4ccc(-c5csc(-n6cncn6)n5)cc4o3)CCC(F)(F)CC2)CC1", "note": "[Example 57, 6-(2-(1H-1,2,4-triazol-1-yl)thiazol-4-yl)-N-(1-((1-cyanocyclopropyl)carbamoyl)-4,4-difluorocyclohexyl)benzofuran-2-carboxamide]", "values": [{"measurement": "IC50", "setting": "human cathepsin K", "value": 0.0013, "unit": "µM"}, {"measurement": "IC50", "setting": "human cathepsin B", "value": "> 10", "unit": "µM"}, {"measurement": "IC50", "setting": "human cathepsin L", "value": "> 10", "unit": "µM"}, {"measurement": "IC50", "setting": "human cathepsin S", "value": 0.416, "unit": "µM"}]}, {"smiles": "CS(=O)(=O)c1ccc(-c2ccc3cc(C(=O)NC4(C(=O)NC5(C#N)CC5)CCCC4)oc3c2)cc1", "note": "[Example 70]", "values": [{"measurement": "IC50", "setting": "human cathepsin K", "value": 0.0086, "unit": "µM"}, {"measurement": "IC50", "setting": "human cathepsin B", "value": 0.53, "unit": "µM"}, {"measurement": "IC50", "setting": "human cathepsin L", "value": "> 10", "unit": "µM"}, {"measurement": "IC50", "setting": "human cathepsin S", "value": 5.06, "unit": "µM"}]}, {"smiles": "N#CC1(NC(=O)C2(NC(=O)c3cc4ccc(-c5ccc(C(O)C(F)F)cc5)cc4o3)CCCCC2)CC1", "note": "(centres unmarked) [Example 7, N-(1-((1-cyanocyclopropyl)carbamoyl)cyclohexyl)-6-(4-(2,2-difluoro-1-hydroxyethyl)phenyl)benzofuran-2-carboxamide]", "values": [{"measurement": "IC50", "setting": "human cathepsin K", "value": 0.00062, "unit": "µM"}, {"measurement": "IC50", "setting": "human cathepsin B", "value": 0.103, "unit": "µM"}, {"measurement": "IC50", "setting": "human cathepsin L", "value": "> 10", "unit": "µM"}, {"measurement": "IC50", "setting": "human cathepsin S", "value": 2.1, "unit": "µM"}]}, {"smiles": "COC1(c2ccc(-c3ccc4cc(C(=O)NC5(C(=O)NC6(C#N)CC6)CCCCC5)oc4c3)cc2)COC1", "note": "[Example 71]", "values": [{"measurement": "IC50", "setting": "human cathepsin K", "value": 0.0021, "unit": "µM"}, {"measurement": "IC50", "setting": "human cathepsin B", "value": 0.29, "unit": "µM"}, {"measurement": "IC50", "setting": "human cathepsin L", "value": "> 10", "unit": "µM"}, {"measurement": "IC50", "setting": "human cathepsin S", "value": "> 10", "unit": "µM"}]}]}
